Laboratory results: patent US20070191291A1, “Compound antibacterial drugs comprising n-acetyl-d-glucosamine” (priority 2003, published 2007)
Where two headings read alike, the source gives them in different places.

Legend:
[1] = system: rats infected and not infected by Bacillus typhi murium; type: in vivo, Wistar rats; settings: rats infected or not by Bacillus typhi murium, consecutive week, 15 rats per group
[2] = system: irritable bowel syndrome (IBS) caused by bacterial CGC; assay: Test Example 5: preventing irritable bowel syndrome (IBS) caused by bacterial CGC; type: in vivo, rats; settings: for CGCs in the rat stools after one week of drug withdrawal / CGCs in the stools of the rats: rats, effective dosage for consecutive 10 days, 30 rats per group; for CGCs in the stools of the rats: stools observed during administration and within 1 week after drug withdrawal
Excerpt: On this basis, the rats were subjected to stimulations such as electric stimulation, intragastric administration with fructus zanthoxyli water, cold, constraint etc. in order to induce IBS, and the incidence rates of IBS of two groups were observed.

[3] = system: Diphtheroid bacillus; assay: Test Example 2: preventing formation of bacterial CGC in vitro (K-B method); type: cell-based
Method: (§1) E. coli (No. 33310, purchased from Chengdu Institute of Biological Products, the Ministry of Public Health) was used in the tests. Grid design was performed by using antibiotic with different concentrations and N-acetyl-D-glucosamine having an amount of from 10 mg to 300 mg. Streak plates were conducted separately, and K-B method was employed for drugs. Colonies at marginal part of drug inhibition zone were picked and were observed under microscope. If cell length was more than 50 μm and cell number was more than 5 in each visual field, it was deemed as CGC positive and was marked with “+”; while if cell length was not greater than 50 μm and cell number was within the range from 0 to 4 in each visual field, it was deemed as CGC negative and was marked with “−”. At this time, the ratio of two substances was called “effective ratio”.
(§2) Effects tests of compound preparation comprising N-acetyl-D-glucosamine and antibiotics for preventing the formation of bacterial CGC in vitro.
(§3) The tests were carried out in vitro, wherein gram-negative amphimicrodes, gram-negative anaerobes and gram-positive aerobes were separately coated on streak plates, test drugs and control drugs were separately dissolved with same volume of sterile water for injection, 10 μl of each drug was used for preparing drug-sensitive paper, K-B method was employed in the tests of drugs, and the inhibition situations of CGC formation were observed.

[4] = system: Citro Bacter; assay: as above; type: cell-based
Method: as §1, §2, §3

[5] = system: Nucleic Acid Bacter; assay: as above; type: cell-based
Method: as §1, §2, §3

[6] = system: Bacillus cereus; assay: as above; type: cell-based
Method: as §1, §2, §3

[7] = system: E. coli; assay: as above; type: cell-based
Method: as §1, §2, §3

[8] = system: Bacteroides fragilis; assay: as above; type: cell-based
Method: as §1, §2, §3

[9] = system: Klebsiella; assay: as above; type: cell-based
Method: as §1, §2, §3

[10] = system: Listeria; assay: as above; type: cell-based
Method: as §1, §2, §3

[11] = system: Bacillus proteus; assay: as above; type: cell-based
Method: as §1, §2, §3

[12] = first of three values given respectively: electric stimulation
[13] = second of three values given respectively: intragastric administration with fructus zanthoxyli water
[14] = third of three values given respectively: cold, constraint etc.
[15] = compound preparation N-acetyl-D-glucosamine (100 mg) and chloramphenicol (400 mg), control chloramphenicol (400 mg)
[16] = compound preparation 100 mg N-acetyl-D-glucosamine + 900 mg spiramycin, control 900 mg spiramycin
[17] = compound preparation 100 mg N-acetyl-D-glucosamine + 1500 mg ampicillin-sulbactam, control drug was ampicillin-sulbactam
[18] = compound preparation 150 mg N-acetyl-D-glucosamine + 150 mg ampicillin, control ampicillin

With `O=C(N[C@H](CO)[C@H](O)c1ccc([N+](=O)[O-])cc1)C(Cl)Cl` [Chloramphenicol, chloramphenicol] the “positive rates of stool CGC and intestinal mucosa CGC” value (from here on “positive rates”) ([1]; N-acetyl-D-glucosamine (100 mg)+chloramphenical (400 mg) vs only chloramphenicol) was 100%, the “incidence rate of IBS” value [2, 12] was 33% and the “CGCs in the rat stools after one week of drug withdrawal” value (“CGCs in the rat stools after one week” for short) [2] was “still present”. For the same molecule, the “CGCs in the stools of the rats” value [2] was “a large amount of CGCs appeared”, the “incidence rate of IBS” value [2, 13] was 33% and the “incidence rate of IBS” value [2, 14] was 33%. The CGC formation [3, 15] was “+ (If cell length was more than 50 μm and cell number was more than 5 in each visual field, it was deemed as CGC positive and was marked with “+”)”, the CGC formation [4, 15] was “+ (If cell length was more than 50 μm and cell number was more than 5 in each visual field, it was deemed as CGC positive and was marked with “+”)” and the CGC formation [5, 15] was “+ (If cell length was more than 50 μm and cell number was more than 5 in each visual field, it was deemed as CGC positive and was marked with “+”)”. For the same molecule, the CGC formation [6, 15] was “+ (If cell length was more than 50 μm and cell number was more than 5 in each visual field, it was deemed as CGC positive and was marked with “+”)”, the CGC formation [7, 15] was “+ (If cell length was more than 50 μm and cell number was more than 5 in each visual field, it was deemed as CGC positive and was marked with “+”)” and the CGC formation [8, 15] was “+ (If cell length was more than 50 μm and cell number was more than 5 in each visual field, it was deemed as CGC positive and was marked with “+”)”. The CGC formation [9, 15] was “+ (If cell length was more than 50 μm and cell number was more than 5 in each visual field, it was deemed as CGC positive and was marked with “+”)”, the CGC formation [10, 15] was “+ (If cell length was more than 50 μm and cell number was more than 5 in each visual field, it was deemed as CGC positive and was marked with “+”)” and the CGC formation [11, 15] was “+ (If cell length was more than 50 μm and cell number was more than 5 in each visual field, it was deemed as CGC positive and was marked with “+”)”.

For spiramycin, the “positive rates” value ([1]; N-acetyl-D-glucosamine (100 mg)+spiramycin (900 mg) vs only spiramycin) was 100%, the “incidence rate of IBS” value [2, 12] was 33% and the “CGCs in the rat stools after one week” value [2] was “still present”. For the same molecule, the “CGCs in the stools of the rats” value [2] was “a large amount of CGCs appeared”, the “incidence rate of IBS” value [2, 13] was 33% and the “incidence rate of IBS” value [2, 14] was 33%. The CGC formation [3, 16] was “+ (If cell length was more than 50 μm and cell number was more than 5 in each visual field, it was deemed as CGC positive and was marked with “+”)”, the CGC formation [3, 17] was “+ (If cell length was more than 50 μm and cell number was more than 5 in each visual field, it was deemed as CGC positive and was marked with “+”)” and the CGC formation [4, 16] was “+ (If cell length was more than 50 μm and cell number was more than 5 in each visual field, it was deemed as CGC positive and was marked with “+”)”. For the same molecule, the CGC formation [4, 17] was “+ (If cell length was more than 50 μm and cell number was more than 5 in each visual field, it was deemed as CGC positive and was marked with “+”)”, the CGC formation [5, 16] was “+ (If cell length was more than 50 μm and cell number was more than 5 in each visual field, it was deemed as CGC positive and was marked with “+”)” and the CGC formation [5, 17] was “+ (If cell length was more than 50 μm and cell number was more than 5 in each visual field, it was deemed as CGC positive and was marked with “+”)”. The CGC formation [6, 16] was “+ (If cell length was more than 50 μm and cell number was more than 5 in each visual field, it was deemed as CGC positive and was marked with “+”)”, the CGC formation [6, 17] was “+ (If cell length was more than 50 μm and cell number was more than 5 in each visual field, it was deemed as CGC positive and was marked with “+”)” and the CGC formation [7, 16] was “+ (If cell length was more than 50 μm and cell number was more than 5 in each visual field, it was deemed as CGC positive and was marked with “+”)”. For the same molecule, the CGC formation [7, 17] was “+ (If cell length was more than 50 μm and cell number was more than 5 in each visual field, it was deemed as CGC positive and was marked with “+”)”, the CGC formation [8, 16] was “+ (If cell length was more than 50 μm and cell number was more than 5 in each visual field, it was deemed as CGC positive and was marked with “+”)” and the CGC formation [8, 17] was “+ (If cell length was more than 50 μm and cell number was more than 5 in each visual field, it was deemed as CGC positive and was marked with “+”)”. For the same molecule, the CGC formation [9, 16] was “+ (If cell length was more than 50 μm and cell number was more than 5 in each visual field, it was deemed as CGC positive and was marked with “+”)”, the CGC formation [9, 17] was “+ (If cell length was more than 50 μm and cell number was more than 5 in each visual field, it was deemed as CGC positive and was marked with “+”)” and the CGC formation [10, 16] was “+ (If cell length was more than 50 μm and cell number was more than 5 in each visual field, it was deemed as CGC positive and was marked with “+”)”. The CGC formation [10, 17] was “+ (If cell length was more than 50 μm and cell number was more than 5 in each visual field, it was deemed as CGC positive and was marked with “+”)”, the CGC formation [11, 16] was “+ (If cell length was more than 50 μm and cell number was more than 5 in each visual field, it was deemed as CGC positive and was marked with “+”)” and the CGC formation [11, 17] was “+ (If cell length was more than 50 μm and cell number was more than 5 in each visual field, it was deemed as CGC positive and was marked with “+”)”.

With `CC1(C)S[C@@H]2[C@H](NC(=O)[C@H](N)c3ccccc3)C(=O)N2[C@H]1C(=O)O` [Ampicillin, ampicillin] the “positive rates” value ([1]; N-acetyl-D-glucosamine (100 mg)+ampicillin (200 mg) vs only ampicillin) was 100%, the “incidence rate of IBS” value [2, 12] was 33% and the “CGCs in the rat stools after one week” value [2] was “still present”. For the same molecule, the “CGCs in the stools of the rats” value [2] was “a large amount of CGCs appeared”, the “incidence rate of IBS” value [2, 13] was 33% and the “incidence rate of IBS” value [2, 14] was 33%. The CGC formation [3, 18] was “+ (If cell length was more than 50 μm and cell number was more than 5 in each visual field, it was deemed as CGC positive and was marked with “+”)”, the CGC formation [4, 18] was “+ (If cell length was more than 50 μm and cell number was more than 5 in each visual field, it was deemed as CGC positive and was marked with “+”)” and the CGC formation [5, 18] was “+ (If cell length was more than 50 μm and cell number was more than 5 in each visual field, it was deemed as CGC positive and was marked with “+”)”. For the same molecule, the CGC formation [6, 18] was “+ (If cell length was more than 50 μm and cell number was more than 5 in each visual field, it was deemed as CGC positive and was marked with “+”)”, the CGC formation [7, 18] was “+ (If cell length was more than 50 μm and cell number was more than 5 in each visual field, it was deemed as CGC positive and was marked with “+”)” and the CGC formation [8, 18] was “+ (If cell length was more than 50 μm and cell number was more than 5 in each visual field, it was deemed as CGC positive and was marked with “+”)”. For the same molecule, the CGC formation [9, 18] was “+ (If cell length was more than 50 μm and cell number was more than 5 in each visual field, it was deemed as CGC positive and was marked with “+”)”, the CGC formation [10, 18] was “+ (If cell length was more than 50 μm and cell number was more than 5 in each visual field, it was deemed as CGC positive and was marked with “+”)” and the CGC formation [11, 18] was “+ (If cell length was more than 50 μm and cell number was more than 5 in each visual field, it was deemed as CGC positive and was marked with “+”)”.
